{"source": "patent US20220211661A1", "about": "“GREEN TEA CATECHINS EUTECTIC SYSTEM” (ASSISTANCE PUBLIQUE - HOPITAUX DE PARIS, priority 2019, published 2022)", "origin": "cited, not measured here", "conditions": "after 1-h ultra violet irradiation"}
{"substance": "(-)-epigallocatechin-3-gallate [EGCG]", "values": [{"measurement": "EGCG decomposed", "result": 70, "unit": "%"}]}
